The target in the assay is T1, human OX2 receptor (Homo sapiens, UniProt O43614).
T1 construct: expressed in transfected cells
T1 sequence (O43614 1-444): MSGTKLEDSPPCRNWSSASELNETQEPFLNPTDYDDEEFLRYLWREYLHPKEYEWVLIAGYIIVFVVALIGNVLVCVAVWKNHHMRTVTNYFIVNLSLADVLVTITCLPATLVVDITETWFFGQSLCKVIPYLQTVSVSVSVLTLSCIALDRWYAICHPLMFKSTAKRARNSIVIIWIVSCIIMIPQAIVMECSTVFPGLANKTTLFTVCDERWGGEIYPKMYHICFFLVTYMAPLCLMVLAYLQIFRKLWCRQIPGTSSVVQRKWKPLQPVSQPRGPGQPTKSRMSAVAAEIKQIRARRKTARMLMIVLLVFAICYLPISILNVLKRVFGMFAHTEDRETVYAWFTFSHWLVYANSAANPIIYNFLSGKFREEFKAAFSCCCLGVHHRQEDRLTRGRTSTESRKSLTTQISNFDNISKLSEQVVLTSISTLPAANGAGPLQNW
In words: Measurement of orexin type 2 receptor agonist activity (calcium fluorescence, Fluo-4, FDSS). The format is cell-based. The settings on record: 3 uM test compound; CHO cells expressing human OX2 receptor; DMSO = 0%, 10 nM orexin A (human) = 100%. In a few lines:
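CHO-K1 cells stably expressing human OX2 receptor (residues 1-444) were loaded with Fluo-4 AM plus probenecid. Calcium fluorescence after compound addition was recorded for 1 min 40 s. Activity (%) was scaled between DMSO (0%) and 10 nM orexin A final (100%).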
As to `CS(=O)(=O)N[C@@H]1CN2C(=O)N(c3noc4cc(F)c(F)c(-c5c(F)cc(F)cc5F)c34)C[C@@H]2C1(F)F` [Example 171, N-{(6R,7aR)-2-[5,6-Difluoro-4-(2,4,6-trifluorophenyl)-1,2-benzoxazol-3-yl]-7,7-difluoro-3-oxohexahydro-1H-pyrrolo[1,2-c]imidazol-6-yl}methanesulfonamide], the “OX2R agonist activity (3 uM, %)” value was found to be 100%.
As to `CCS(=O)(=O)N[C@@H]1CN2C(=O)N(c3noc4cc(F)c(F)c(-c5c(F)cc(F)cc5F)c34)C[C@@H]2C1(F)F` [Example 172, N-{(6R,7aR)-2-[5,6-difluoro-4-(2,4,6-trifluorophenyl)-1,2-benzoxazol-3-yl]-7,7-difluoro-3-oxohexahydro-1H-pyrrolo[1,2-c]imidazol-6-yl}ethanesulfonamide], the “OX2R agonist activity (3 uM, %)” value came out at 98%.
Next, `Cc1cc(-c2c(F)cc(F)cc2F)c2c(-n3cc4n(c3=O)C[C@@H](NS(C)(=O)=O)C4(F)F)noc2n1` [Example 174, N-{(6R)-7,7-Difluoro-2-[6-methyl-4-(2,4,6-trifluorophenyl) [1,2]oxazolo [5,4-b]pyridin-3-yl]-3-oxo-2,5,6,7-tetrahydro-3H-pyrrolo[1,2-c]imidazol-6-yl}methanesulfonamide]: 95%.
The figure for `CCS(=O)(=O)N[C@@H]1CN2C(=O)N(c3noc4nc(C)cc(-c5c(F)cc(F)cc5F)c34)C[C@@H]2C1(F)F` [Example 175, N-{(6R,7aR)-7,7-difluoro-2-[6-methyl-4-(2,4,6-trifluorophenyl)[1,2]oxazolo[5,4-b]pyridin-3-yl]-3-oxohexahydro-1H-pyrrolo[1,2-c]imidazol-6-yl}ethanesulfonamide] is 98%; for `CS(=O)(=O)N[C@@H]1Cn2c(cn(-c3noc4cc(OC(F)(F)F)cc(-c5c(F)cc(F)cc5F)c34)c2=O)C1(F)F` [Example 176, N-{(6R)-7,7-difluoro-3-oxo-2-[6-(trifluoromethoxy)-4-(2,4,6-trifluorophenyl)-1,2-benzoxazol-3-yl]-2,5,6,7-tetrahydro-3H-pyrrolo[1,2-c]imidazol-6-yl}methanesulfonamide] it is 89%; for `CCS(=O)(=O)N[C@@H]1Cn2c(cn(-c3noc4cc(OC(F)F)cc(-c5c(F)cc(F)cc5F)c34)c2=O)C1(F)F` [Example 179, N-{(6R)-2-[6-(difluoromethoxy)-4-(2,4,6-trifluorophenyl)-1,2-benzoxazol-3-yl]-7,7-difluoro-3-oxo-2,5,6,7-tetrahydro-3H-pyrrolo[1,2-c]imidazol-6-yl}ethanesulfonamide] it is 109%.
Turning to `Cc1cc(-c2c(F)cccc2F)c2c(-n3cc4n(c3=O)C[C@@H](NS(C)(=O)=O)C4(F)F)noc2c1` [Example 180, N-{(6R)-2-[4-(2,6-difluorophenyl)-6-methyl-1,2-benzoxazol-3-yl]-7,7-difluoro-3-oxo-2,5,6,7-tetrahydro-3H-pyrrolo[1,2-c]imidazol-6-yl}methanesulfonamide], the “OX2R agonist activity (3 uM, %)” value was found to be 100%.
Next, `CCS(=O)(=O)N[C@H]1C[C@H]2CN(c3cnc4cccc(-c5c(F)cccc5F)n34)C(=O)N2C1` [Example 182, N-{(6S,7aS)-2-[5-(2,6-difluorophenyl)imidazo[1,2-a]pyridin-3-yl]-3-oxohexahydro-1H-pyrrolo[1,2-c]imidazol-6-yl}ethanesulfonamide]: 84%; `Cc1cc2onc(-n3cc4n(c3=O)C[C@@H](NS(C)(=O)=O)C4(F)F)c2c(-c2c(F)cc(F)cc2F)c1F` [Example 184, N-{(6R)-7,7-difluoro-2-[5-fluoro-6-methyl-4-(2,4,6-trifluorophenyl)-1,2-benzoxazol-3-yl]-3-oxo-2,5,6,7-tetrahydro-3H-pyrrolo[1,2-c]imidazol-6-yl}methanesulfonamide]: 101%; `CS(=O)(=O)N[C@@H]1Cn2c(cn(-c3noc4cc(CO)c(F)c(-c5c(F)cc(F)cc5F)c34)c2=O)C1(F)F` [Example 185, N-{(6R)-7,7-difluoro-2-[5-fluoro-6-(hydroxymethyl)-4-(2,4,6-trifluorophenyl)-1,2-benzoxazol-3-yl]-3-oxo-2,5,6,7-tetrahydro-3H-pyrrolo[1,2-c]imidazol-6-yl}methanesulfonamide]: 104%.
Consider `Cc1cc2onc(N3C[C@H]4N(C[C@@H](NS(C)(=O)=O)C4(F)F)C3=O)c2c(-c2c(F)cccc2F)c1F` [Example 186, N-{(6R,7aR)-2-[4-(2,6-difluorophenyl)-5-fluoro-6-methyl-1,2-benzoxazol-3-yl]-7,7-difluoro-3-oxohexahydro-1H-pyrrolo[1,2-c]imidazol-6-yl}methanesulfonamide], for which the “OX2R agonist activity (3 uM, %)” value is listed as 101%.
The figure for `CCOc1cc(-c2c(F)cc(F)cc2F)c2c(-n3cc4n(c3=O)C[C@@H](NS(C)(=O)=O)C4(F)F)noc2c1` [Example 189, N-{(6R)-2-[6-ethoxy-4-(2,4,6-trifluorophenyl)-1,2-benzoxazol-3-yl]-7,7-difluoro-3-oxo-2,5,6,7-tetrahydro-3H-pyrrolo[1,2-c]imidazol-6-yl}methanesulfonamide] is 103%.
The figure for `CCS(=O)(=O)N[C@@H]1Cn2c(cn(-c3noc4nc(C)cc(-c5c(F)cc(F)cc5F)c34)c2=O)C1(F)F` [Example 190, N-{(6R)-7,7-difluoro-2-[6-methyl-4-(2,4,6-trifluorophenyl)[1,2]oxazolo[5,4-b]pyridin-3-yl]-3-oxo-2,5,6,7-tetrahydro-3H-pyrrolo[1,2-c]imidazol-6-yl}ethanesulfonamide] is 96%; for `Cc1cc2onc(N3C[C@H]4N(C[C@@H](NS(C)(=O)=O)C4(F)F)C3=O)c2c(-c2c(F)cc(F)cc2F)n1` [Example 191, N-{(6R,7aR)-7,7-difluoro-2-[6-methyl-4-(2,4,6-trifluorophenyl)[1,2]oxazolo[4,5-c]pyridin-3-yl]-3-oxohexahydro-1H-pyrrolo[1,2-c]imidazol-6-yl}methanesulfonamide] it is 98%; for `CS(=O)(=O)N[C@@H]1CN2C(=O)N(c3noc4cc(OC(F)F)cc(-c5c(F)cc(F)cc5F)c34)C[C@@H]2C1(F)F` [Example 193, N-{(6R,7aR)-2-[6-(difluoromethoxy)-4-(2,4,6-trifluorophenyl)-1,2-benzoxazol-3-yl]-7,7-difluoro-3-oxohexahydro-1H-pyrrolo[1,2-c]imidazol-6-yl}methanesulfonamide] it is 103%.
As for `CCOc1cc(-c2c(F)cccc2F)c2c(-n3cc4n(c3=O)C[C@@H](NS(C)(=O)=O)C4(F)F)noc2c1` [Example 194, N-{(6R)-2-[4-(2,6-difluorophenyl)-6-ethoxy-1,2-benzoxazol-3-yl]-7,7-difluoro-3-oxo-2,5,6,7-tetrahydro-3H-pyrrolo[1,2-c]imidazol-6-yl}methanesulfonamide], the “OX2R agonist activity (3 uM, %)” value stood at 92%.
Consider `CS(=O)(=O)N[C@H]1C[C@H]2CCN(c3noc4cccc(-c5c(F)cc(F)cc5F)c34)C(=O)N2C1` [Example 195], for which the “OX2R agonist activity (3 uM, %)” value came out at 106%.
Regarding `Cc1cc2onc(-n3cc4n(c3=O)C[C@@H](NS(C)(=O)=O)C4(F)F)c2c(-c2c(F)cccc2F)n1` [Example 196, N-{(6R)-2-[4-(2,6-difluorophenyl)-6-methyl[1,2]oxazolo[4,5-c]pyridin-3-yl]-7,7-difluoro-3-oxo-2,5,6,7-tetrahydro-3H-pyrrolo[1,2-c]imidazol-6-yl}methanesulfonamide], the “OX2R agonist activity (3 uM, %)” value is 106%.

(Values after patent US11987586B1 (TAKEDA PHARMACEUTICAL COMPANY LIMITED, priority 2022, dated 2024).)
